Values joined by “and” are separate entries in the source; they are usually repeats but may differ in a detail not shown here. Identical values can stand only once.
Test system: 565232-114-T-J1-PDC complex spheroid viability
Assay: Anticancer human tumor 565232-114-T-J1-PDC patient-derived bladder carcinoma cell line growth inhibition [CLK]
Details: for viability, T/C: stronger effect = lower value
In short: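 Multi-cell-type spheroids combined patient-derived tumor cells with HUVEC endothelial cells and human mesenchymal stem cells. Paired agents were dosed in half-log steps down from about clinical Cmax, or from 10 microM where Cmax was unknown.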

[1] = curve of first compound, second compound 0.0316 µM
[2] = curve of first compound, second compound 0.1 µM
[3] = curve of first compound, second compound 0.316 µM
[4] = curve of first compound, second compound 1 µM
[5] = curve of first compound, second compound 3.16 µM
[6] = curve of first compound, second compound 10 µM
[7] = second compound 0.0316 µM, first compound 0.0316 µM
[8] = second compound 0.0316 µM, first compound 0.1 µM
[9] = second compound 0.0316 µM, first compound 0.316 µM
[10] = second compound 0.0316 µM, first compound 1 µM
[11] = second compound 0.0316 µM, first compound 3.16 µM
[12] = second compound 0.0316 µM, first compound 10 µM
[13] = second compound 0.1 µM, first compound 0.0316 µM
[14] = second compound 0.1 µM, first compound 0.1 µM
[15] = second compound 0.1 µM, first compound 0.316 µM
[16] = second compound 0.1 µM, first compound 1 µM
[17] = second compound 0.1 µM, first compound 3.16 µM
[18] = second compound 0.1 µM, first compound 10 µM
[19] = second compound 0.316 µM, first compound 0.0316 µM
[20] = second compound 0.316 µM, first compound 0.1 µM
[21] = second compound 0.316 µM, first compound 0.316 µM
[22] = second compound 0.316 µM, first compound 1 µM
[23] = second compound 0.316 µM, first compound 3.16 µM
[24] = second compound 0.316 µM, first compound 10 µM
[25] = second compound 1 µM, first compound 0.0316 µM
[26] = second compound 1 µM, first compound 0.1 µM
[27] = second compound 1 µM, first compound 0.316 µM
[28] = second compound 1 µM, first compound 1 µM
[29] = second compound 1 µM, first compound 3.16 µM
[30] = second compound 1 µM, first compound 10 µM
[31] = second compound 3.16 µM, first compound 0.0316 µM
[32] = second compound 3.16 µM, first compound 0.1 µM
[33] = second compound 3.16 µM, first compound 0.316 µM
[34] = second compound 3.16 µM, first compound 1 µM
[35] = second compound 3.16 µM, first compound 3.16 µM
[36] = second compound 3.16 µM, first compound 10 µM
[37] = second compound 10 µM, first compound 0.0316 µM
[38] = second compound 10 µM, first compound 0.1 µM
[39] = second compound 10 µM, first compound 0.316 µM
[40] = second compound 10 µM, first compound 1 µM
[41] = second compound 10 µM, first compound 3.16 µM
[42] = second compound 10 µM, first compound 10 µM
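Further: spheroids exposed to compounds for 7 days before readout.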
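Wherever viability, T/C is given: 100% = DMSO vehicle wells with luminescence normalized to vehicle control.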

C#Cc1c(F)ccc2cc(O)cc(-c3ncc4c(N5CC6CCC(C5)N6)nc(OCC56CCCN5CC(F)C6)nc4c3F)c12 (stereo unspecified) + CNC(=O)c1ccc(Nc2nc(OC3CCCC3)c3c(-c4ccc5nc(C)oc5c4)c[nH]c3n2)c(OC)c1
IC50 [1]: > 10000 nM
IC50 [2]: < 31.6 nM
IC50 [3]: < 31.6 nM
IC50 [4]: < 31.6 nM
IC50 [5]: < 31.6 nM
IC50 [6]: < 31.6 nM
viability, T/C [7]: 78.9%
viability, T/C [8]: 67.7%
viability, T/C [9]: 95.5%
viability, T/C [10]: 75.6%
viability, T/C [11]: 119%
viability, T/C [12]: 89.6%
viability, T/C [13]: 49.6%
viability, T/C [14]: 46.9%
viability, T/C [15]: 45.9%
viability, T/C [16]: 53.2%
viability, T/C [17]: 51.5%
viability, T/C [18]: 44.2%
viability, T/C [19]: 33.3%
viability, T/C [20]: 31.7%
viability, T/C [21]: 28.9%
viability, T/C [22]: 28.1%
viability, T/C [23]: 31.5%
viability, T/C [24]: 23%
viability, T/C [25]: 25.8%
viability, T/C [26]: 25.6%
viability, T/C [27]: 22.3%
viability, T/C [28]: 17.4%
viability, T/C [29]: 21.5%
viability, T/C [30]: 17.3%
viability, T/C [31]: 18.6%
viability, T/C [32]: 16.2%
viability, T/C [33]: 18.8%
viability, T/C [34]: 16.4%
viability, T/C [35]: 16.4%
viability, T/C [36]: 11.6%
viability, T/C [37]: 18.6%
viability, T/C [38]: 17.3%
viability, T/C [39]: 12.3%
viability, T/C [40]: 14.8%
viability, T/C [41]: 19.7%
viability, T/C [42]: 9.9%

COc1cccc2c1C(=O)c1c(O)c3c(c(O)c1C2=O)CC(O)(C(=O)CO)CC3OC1CC(N)C(O)C(C)O1 (stereo unspecified) + CN1CCN(c2cc(C(=O)Nc3cc4cc(-c5cnn(C)c5)ccc4cn3)ccn2)CC1
IC50 [1]: 308 nM
IC50 [2]: 247 nM
IC50 [3]: < 31.6 nM
IC50 [4]: < 31.6 nM
IC50 [5]: < 31.6 nM
IC50 [6]: < 31.6 nM
viability, T/C [7]: 105%
viability, T/C [8]: 109%
viability, T/C [9]: 48.1%
viability, T/C [10]: 9.14%
viability, T/C [11]: 0.19%
viability, T/C [12]: 0.25%
viability, T/C [13]: 115%
viability, T/C [14]: 89.1%
viability, T/C [15]: 40.7%
viability, T/C [16]: 5.59%
viability, T/C [17]: 0.19%
viability, T/C [18]: 0.21%
viability, T/C [19]: 18.3%
viability, T/C [20]: 13.6%
viability, T/C [21]: 6.17%
viability, T/C [22]: 0.17%
viability, T/C [23]: 1.79%
viability, T/C [24]: 0.82%
viability, T/C [25]: 0.13%
viability, T/C [26]: 0.18%
viability, T/C [27]: 0.16%
viability, T/C [28]: 0.17%
viability, T/C [29]: 3.15%
viability, T/C [30]: 0.74%
viability, T/C [31]: 1.46%
viability, T/C [32]: 0.16%
viability, T/C [33]: 0.94%
viability, T/C [34]: 2.29%
viability, T/C [35]: 2.17%
viability, T/C [36]: 1.43%
viability, T/C [37]: 0.09%
viability, T/C [38]: 0.11%
viability, T/C [39]: 0.22%
viability, T/C [40]: 2.57%
viability, T/C [41]: 0.16%
viability, T/C [42]: 1.03%

Nc1ccccc1NC(=O)c1ccc(CNC(=O)OCc2cccnc2)cc1
viability, T/C (compound 0.0316 µM): 103% and 80.6%
viability, T/C (compound 0.1 µM): 94.5% and 89.7%
viability, T/C (compound 0.316 µM): 110% and 94.7%
viability, T/C (compound 1 µM): 106% and 113%
viability, T/C (compound 3.16 µM): 117% and 65.5%
viability, T/C (compound 10 µM): 2.78% and 0.64%
IC50 (curve of compound): 5900 nM and 4160 nM

Reference: PubChem BioAssay AID2060612 (Molecular Pharmacology Branch, DTP, NCI, 2025)
